Measured values reported in patent publication US4605744A, “Imidazole derivatives” (Hoffmann-La Roche Inc., priority 1985, dated 1986).
Structures can show the parent of a compound that is named as a salt. Where two headings read alike, the source gives them in different places.

Columns and labels:
Assay in all cases: In vitro antibacterial activity (MIC)
Assay type in all cases: cell-based
[1] = system: C. diversus CDC 1663-72; conditions: Citrobacter koseri, CDC166372
Description: (§1) Drug dilutions are prepared in Mueller-Hinton broth ranging from 128 to 0.008 μg/ml. The diluted agents are dispensed in 100 μl amounts into the wells of a 96-well tray and used immediately or frozen at -10° to -70° C. until needed. Using an automated inoculator, 1.5 μl of a 10^-2 dilution of an overnight culture is added to each well of the tray. The tops of the trays are then sealed using transparent tape and incubated overnight at 37° C. The trays are examined with the aid of a viewer. The lowest concentration at which no growth is observed is considered to be the minimum inhibitory concentration (MIC).

[2] = system: E. aerogenes 503-478; conditions: Klebsiella aerogenes, 503478, E. aerogenes 503-478; read-out: MIC
Description: as §1

[3] = system: E. aerogenes 83
Description: as §1

[4] = system: E. aerogenes 8
Description: as §1

[5] = system: E. cloacae 214; conditions: Enterobacter cloacae, 214, E. cloacae 214; read-out: MIC
Description: as §1

[6] = system: E. cloacae 6951; conditions: Enterobacter cloacae, 6951, E. cloacae 6951; read-out: MIC
Description: as §1

[7] = system: E. cloacae 9295; conditions: Enterobacter cloacae, 9295, E. cloacae 9295; read-out: MIC
Description: as §1

[8] = system: E. cloacae 9570A; conditions: Enterobacter cloacae, read-out: MIC
Description: as §1

[9] = system: E. coli 387-1
Description: as §1

[10] = system: E. coli 48
Description: as §1

[11] = system: E. coli 4; conditions: Escherichia coli, 4
Description: as §1

[12] = system: E. coli 503-455
Description: as §1

[13] = system: E. coli 5152; conditions: Escherichia coli, 5152, E. coli 5152; read-out: MIC
Description: as §1

[14] = system: K. pneumoniae 35; conditions: Klebsiella pneumoniae; K. pneumoniae 35; read-out: MIC
Description: as §1

[15] = system: K. pneumoniae 4964; conditions: Klebsiella pneumoniae, 4964, K. pneumoniae 4964; read-out: MIC
Description: as §1

[16] = system: K. pneumoniae 503-964; conditions: Klebsiella pneumoniae, 503964; K. pneumoniae 503-964; read-out: MIC
Description: as §1

[17] = system: K. pneumoniae 503-994; conditions: Klebsiella pneumoniae, 503994, K. pneumoniae 503-994; read-out: MIC
Description: as §1

[18] = system: K. pneumoniae 8357; conditions: Klebsiella pneumoniae, 8357, K. pneumoniae 8357; read-out: MIC
Description: as §1

[19] = system: K. pneumoniae HE7; conditions: Klebsiella pneumoniae; K. pneumoniae HE7; read-out: MIC
Description: as §1

[20] = system: P. aeruginosa 503-820; conditions: Pseudomonas aeruginosa, 503820; P. aeruginosa 503-820; read-out: MIC
Description: as §1

[21] = system: P. aeruginosa 5700; conditions: Pseudomonas aeruginosa, 5700, P. aeruginosa 5700; read-out: MIC
Description: as §1

[22] = system: P. aeruginosa 5712; conditions: Pseudomonas aeruginosa; P. aeruginosa 5712; read-out: MIC
Description: as §1

[23] = system: P. aeruginosa 6148B; conditions: Pseudomonas aeruginosa, read-out: MIC
Description: as §1

[24] = system: P. aeruginosa 8780; conditions: Pseudomonas aeruginosa; P. aeruginosa 8780; read-out: MIC
Description: as §1

[25] = system: P. aeruginosa B; conditions: Pseudomonas aeruginosa, read-out: MIC
Description: as §1

[26] = system: P. aeruginosa POW 151; conditions: Pseudomonas aeruginosa, POW151
Description: as §1

[27] = system: P. aeruginosa Stone 130; conditions: Pseudomonas aeruginosa, STONE130, read-out: MIC
Description: as §1

[28] = system: P. mirabilis 2; conditions: Proteus mirabilis, 2, P. mirabilis 2; read-out: MIC
Description: as §1

[29] = system: P. vulgaris 100; conditions: Proteus vulgaris; P. vulgaris 100; read-out: MIC
Description: as §1

[30] = system: P. vulgaris 101; conditions: Proteus vulgaris, 101, P. vulgaris 101; read-out: MIC
Description: as §1

[31] = system: S. aureus 1059B; conditions: Staphylococcus aureus, read-out: MIC
Description: as §1

[32] = system: S. faecalis C1; conditions: Enterococcus faecalis; S. faecalis C1; read-out: MIC
Description: as §1

[33] = system: S. marcescens 5805; conditions: Serratia marcescens, 5805, S. marcescens 5805; read-out: MIC
Description: as §1

[34] = system: S. marcescens S147; conditions: Serratia marcescens; S. marcescens S147; read-out: MIC
Description: as §1

[35] = system: S. marcescens S1; conditions: Serratia marcescens, S1, S. marcescens S1; read-out: MIC
Description: as §1

[36] = system: S. marcescens S2; conditions: Serratia marcescens; S. marcescens S2; read-out: MIC
Description: as §1

[37] = system: S. marcescens S4; conditions: Serratia marcescens, S4, S. marcescens S4; read-out: MIC
Description: as §1

[38] = system: S. marcescens S714; conditions: Serratia marcescens, S714, S. marcescens S714; read-out: MIC
Description: as §1

[39] = system: S. marcescens SM; conditions: Serratia marcescens, read-out: MIC
Description: as §1

[40] = system: S. pyogenes 503-782; conditions: Streptococcus pyogenes, 503782; S. pyogenes 503-782; read-out: MIC
Description: as §1

[41] = system: S. schottmuelleri; conditions: read-out: MIC
Description: as §1

[42] = system: P. mirabilis 620A; conditions: Proteus mirabilis, 620A, P. mirabilis 620A; read-out: MIC
Description: as §1

[43] = system: S. aureus Smith; conditions: Staphylococcus aureus, S. aureus Smith; read-out: MIC
Description: as §1

[44] = system: S. marcescens S5; conditions: Serratia marcescens, S5, S. marcescens S5; read-out: MIC
Description: as §1

[45] = Klebsiella aerogenes, 83, E. aerogenes 83, read-out: MIC
[46] = Escherichia coli, 503455, E. coli 503-455, read-out: MIC
[47] = C. diversus CDC 1663-72, read-out: MIC
[48] = Klebsiella aerogenes, 8, E. aerogenes 8
[49] = Escherichia coli, 3871, E. coli 387-1, read-out: MIC

`CC1(C)S[C@@H]2[C@H](N=CN3CCC(c4ncc[nH]4)CC3)C(=O)N2[C@H]1C(=O)O` [O, [2S-(2alpha,5alpha,6beta)]-6-[[[4-(1H-imidazol-2-yl-1-piperidinyl]methylene]amino]-3,3-dimethyl-7-oxo-4-thia-1-azabicyclo[3.2.0]heptane-2-carboxylic acid hydrochloride trihydrate] was tested, and the MIC [1] was 0.125 mg/L, the MIC [2] was greater than 128 mg/L and the MIC [3, 45] was 8 mg/L. For the same compound, the MIC ([4]; Klebsiella aerogenes, E. aerogenes 8, read-out: MIC) was 32 mg/L, the MIC [5] was 0.5 mg/L and the MIC [6] was 16 mg/L. The MIC [7] was 1 mg/L, the MIC [8] was 0.5 mg/L and the MIC ([9]; Escherichia coli, 3871) was 0.125 mg/L. The MIC ([10]; Escherichia coli, 48) was 0.125 mg/L, the MIC [11] was 0.125 mg/L and the MIC [12, 46] was 1 mg/L. The MIC [13] was 16 mg/L, the MIC [14] was 1 mg/L and the MIC [15] was 64 mg/L. The MIC [16] was 0.5 mg/L, the MIC [17] was 0.5 mg/L and the MIC [18] was 0.5 mg/L. The MIC [19] was greater than 128 mg/L, the MIC [20] was greater than 128 mg/L and the MIC [21] was 0.5 mg/L. For the same compound, the MIC [22] was greater than 128 mg/L, the MIC [23] was greater than 128 mg/L and the MIC [24] was greater than 128 mg/L. It also gave an MIC [25] of 0.5 mg/L, an MIC [26] greater than 128 mg/L and an MIC [27] greater than 128 mg/L. It also gave an MIC [28] of 1 mg/L, an MIC [29] of 8 mg/L and an MIC [30] of 32 mg/L. It also gave an MIC [31] greater than 128 mg/L, an MIC [32] of 32 mg/L and an MIC [33] of 8 mg/L. The MIC [34] was 0.25 mg/L, the MIC [35] was 0.5 mg/L and the MIC [36] was 0.5 mg/L. It also gave an MIC [37] of 2 mg/L, an MIC [38] of 1 mg/L and an MIC [39] of 0.5 mg/L. It also gave an MIC [40] of 32 mg/L and an MIC [41] of 0.125 mg/L.
Compound `CC1(C)S[C@@H]2[C@H](N=CN3CCC(CCCn4ccnc4CO)CC3)C(=O)N2[C@H]1C(=O)O` [R, [2S-(2alpha,5alpha,6beta)]-6-[[[4-[3-[2-(hydroxymethyl)-1H-imidazol-1-yl]propyl-1-piperidinyl]methylene]amino]-3,3-dimethyl-7-oxo-4-thia-1-azabicyclo[3.2.0]heptane-2-carboxylic acid hydrochloride 1.1 molar hydrate] has an MIC [1, 47] of 0.016 mg/L, an MIC [2] of 0.5 mg/L and an MIC ([3]; Klebsiella aerogenes, 83) of 1 mg/L. It also gave an MIC [4, 48] of 32 mg/L, an MIC [5] of 0.5 mg/L and an MIC [6] of 8 mg/L. The MIC [7] was 0.125 mg/L, the MIC [8] was 0.062 mg/L and the MIC [9, 49] was 2 mg/L. It also gave an MIC ([10]; Escherichia coli, 48, E. coli 48, read-out: MIC) of 0.016 mg/L, an MIC [11] of 2 mg/L and an MIC [12, 46] of 0.5 mg/L. The MIC [13] was 4 mg/L, the MIC [14] was 0.062 mg/L and the MIC [15] was 0.5 mg/L. For the same compound, the MIC [16] was 0.016 mg/L, the MIC [17] was 0.016 mg/L and the MIC [18] was 0.062 mg/L. It also gave an MIC [19] greater than 128 mg/L, an MIC [20] of 128 mg/L and an MIC [28] of 0.25 mg/L. For the same compound, the MIC [42] was 64 mg/L, the MIC [29] was 2 mg/L and the MIC [30] was 1 mg/L. It also gave an MIC [31] of 64 mg/L, an MIC [43] of 8 mg/L and an MIC [33] of 1 mg/L. It also gave an MIC [34] of 0.125 mg/L, an MIC [35] of 0.062 mg/L and an MIC [36] of 0.125 mg/L. For the same compound, the MIC [37] was 0.5 mg/L, the MIC [44] was 1 mg/L and the MIC [38] was 1 mg/L. The MIC [39] was 0.062 mg/L and the MIC [41] was less than 0.008 mg/L.
In the case of `CN(C)C=Nc1nccn1CCCC1CCN(C=N[C@@H]2C(=O)N3[C@@H]2SC(C)(C)[C@@H]3C(=O)O)CC1` [S, [2S-(2alpha,5alpha,6beta)]-6-[[[4-[3-[2-[[(dimethylamino)methylene]amino]-1H-imidazol-1-yl]propyl]-1-piperidinyl]methylene]amino]-3,3-dimethyl-7-oxo-4-thia-1-azabicyclo[3.2.0]heptane-2-carboxylic acid 1.7 molar hydrochloride 2.6 molar hydrate], the MIC [1, 47] is reported as 0.5 mg/L, the MIC [2] is reported as 2 mg/L and the MIC [3, 45] is reported as 4 mg/L. For the same compound, the MIC [4, 48] was 32 mg/L, the MIC [5] was 4 mg/L and the MIC [6] was 8 mg/L. It also gave an MIC [7] of 1 mg/L, an MIC [8] of 1 mg/L and an MIC [9, 49] of 2 mg/L. It also gave an MIC ([10]; Escherichia coli, 48) of 0.5 mg/L, an MIC [11] of 4 mg/L and an MIC ([12]; Escherichia coli, 503455) of 1 mg/L. The MIC [13] was 8 mg/L, the MIC [14] was 0.5 mg/L and the MIC [15] was 0.5 mg/L. For the same compound, the MIC [16] was 0.5 mg/L, the MIC [17] was 0.5 mg/L and the MIC [18] was 0.5 mg/L. The MIC [19] was greater than 128 mg/L, the MIC [28] was 2 mg/L and the MIC [42] was greater than 128 mg/L. It also gave an MIC [29] of 8 mg/L, an MIC [30] of 8 mg/L and an MIC [31] of 64 mg/L. For the same compound, the MIC [43] was 8 mg/L, the MIC [33] was 4 mg/L and the MIC [34] was 2 mg/L. For the same compound, the MIC [35] was 4 mg/L, the MIC [36] was 2 mg/L and the MIC [37] was 4 mg/L. It also gave an MIC [44] of 4 mg/L, an MIC [38] of 4 mg/L and an MIC [39] of 2 mg/L. For the same compound, the MIC [41] was 0.25 mg/L.
